{
  "source": "patent US20230202973A1",
  "about": "“BARNESIN A, DERIVATIVES AND USES THEREOF” (Leibniz-Institut Für Naturstoff-Forschung Und …, priority 2018, published 2023)",
  "key": {"[1]": {"test_system": "ficin (Sigma-Aldrich, F6008)", "assay": "Protease assay with azocasein, ficin", "assay_type": "biochemical", "details": "2 mM iodacetamide", "procedure": "(§1) Protease Assays with azocasein: Protease inhibition assays against the proteases papain, ficin, trypsin, pepsin and thermolysin were performed according to the protocol of Garcia-Carreño (loc. cit.) in a reaction buffer containing 25 mM TRIS-HCl, 0.15 M NaCl, pH 7.2 (or pH 3.5 for aspartic protease). The total assay volume was 47 μL buffer with 2 μL of the protease as well as 1 μL of suitable inhibitor or corresponding inhibitor solvent (100% MeoH or water). […]\n(§2) Inhibitors were dissolved in 100% MeOH or water and added to the assay (1 μL); final concentration: 2% MeOH. […] Extract absorbance controls were performed using inhibitor (1 μL in MeOH) without protease. […]\n(§3) Samples were incubated with buffer and suitable inhibitor (or without for negative controls) for 1 h at r.t. and the reaction was started afterward by adding 50 μl of […] substrate and incubated for 1 h at 37° C. […] The hydrolyzed substrate supernatant was incubated in an equal volume of 0.5 N NaOH for 5 min and the absorbance was measured at 440 nm. […]\n(§4) The log IC50 values were determined using the standard curves analyzing tool with four parameter logistic equation of SigmaPlot12 with technical triplicates. Propagation of error was calculated using the standard error and log IC50 values where the equation of error propagation is defined as Δy=0.43Δx/x."}, "[2]": {"biological_target": "T1, papain (Sigma-Aldrich, P4762) (Carica papaya, UniProt P00784)", "T1 sequence (P00784 134-345)": "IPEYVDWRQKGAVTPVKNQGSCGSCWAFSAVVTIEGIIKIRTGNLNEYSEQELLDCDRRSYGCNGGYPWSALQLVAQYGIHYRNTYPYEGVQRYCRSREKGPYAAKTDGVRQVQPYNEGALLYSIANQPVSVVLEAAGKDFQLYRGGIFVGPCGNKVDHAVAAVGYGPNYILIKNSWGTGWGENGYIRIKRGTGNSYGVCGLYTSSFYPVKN", "assay": "Protease assay with azocasein, papain", "assay_type": "biochemical", "details": "2 mM iodacetamide; read-out: inhibition of enzyme activity (control inhibitor), papain", "procedure": "as §1, §2, §3, §4"}, "ficin": {"test_system": "ficin", "assay": "Protease assay with azocasein: ficin", "assay_type": "biochemical", "details": "azocasein substrate, pH 7.2, n.i. = no inhibition", "procedure": "(§5) Protease Assays with azocasein: Protease inhibition assays against the proteases papain, ficin, trypsin, pepsin and thermolysin were performed according to the protocol of Garcia-Carreño (loc. cit.) in a reaction buffer containing 25 mM TRIS-HCl, 0.15 M NaCl, pH 7.2 (or pH 3.5 for aspartic protease). The total assay volume was 47 μL buffer with 2 μL of the protease as well as 1 μL of suitable inhibitor or corresponding inhibitor solvent (100% MeoH or water). Final concentration of proteases was as follows: 2 mg/mL for papain (Sigma-Aldrich, P4762), 600 μg/mL for ficin (Sigma-Aldrich, F6008), 80 μg/mL for trypsin (Thermo Fisher, 23266), 60 mg/mL for pepsin (Sigma-Aldrich P6887)) and 2 μg/mL for thermolysin (Sigma-Aldrich, P1512).\n(§6) Inhibitors were dissolved in 100% MeOH or water and added to the assay (1 μL); final concentration: 2% MeOH. Samples of control inhibitors were prepared as follows: (1) serine protease (trypsin): PMFS (2 mM) and soybean trypsin inhibitor (240 μM) (Sigma-Aldrich, T1021), (2) cysteine proteases (papain and ficin): iodacetamide (2 mM), (3) […] (pepsin): pepstatin A (1 μg/mL) (Sigma-Aldrich, P4265), (4) metalloprotease (thermolysin): EDTA (10 mM). […] Negative controls were performed with protease alone (without inhibitor) and MeOH at a final concentration of 2% (reference for activity of 100%). Extract absorbance controls were performed using inhibitor (1 μL in MeOH) without protease. Blanks were performed using 49 μL buffer and 1 μL MeOH.\n(§7) Samples were incubated with buffer and suitable inhibitor (or without for negative controls) for 1 h at r.t. and the reaction was started afterward by adding 50 μl of […] substrate and incubated for 1 h at 37° C. After stopping the reaction with trichloracetic acid (TCA), the separation of the precipitate was accomplished by centrifugation at 6500 g for 5 min. The hydrolyzed substrate supernatant was incubated in an equal volume of 0.5 N NaOH for 5 min and the absorbance was measured at 440 nm. OD values of the protease control without inhibitor were used as reference for a 100% activity.\nas §4"}, "pepsin": {"biological_target": "T2, pepsin (Sus scrofa, UniProt P00791)", "T2 construct": "purchased Sigma-Aldrich P6887", "T2 sequence (P00791 60-385)": "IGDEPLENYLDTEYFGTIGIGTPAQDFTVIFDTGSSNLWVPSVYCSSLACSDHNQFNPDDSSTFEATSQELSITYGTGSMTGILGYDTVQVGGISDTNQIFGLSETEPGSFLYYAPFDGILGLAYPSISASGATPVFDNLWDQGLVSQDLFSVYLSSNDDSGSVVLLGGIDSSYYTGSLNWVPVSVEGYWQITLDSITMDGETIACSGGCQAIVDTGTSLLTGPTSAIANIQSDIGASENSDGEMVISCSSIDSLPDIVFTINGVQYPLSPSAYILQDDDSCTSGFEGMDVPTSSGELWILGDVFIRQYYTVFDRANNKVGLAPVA", "assay": "Protease assay with azocasein: pepsin", "assay_type": "biochemical", "details": "azocasein substrate, pH 3.5; n.i. = no inhibition", "procedure": "as §5, §6, §7, §4"}, "thermolysin": {"biological_target": "T3, thermolysin (Bacillus thermoproteolyticus, UniProt P00800)", "T3 construct": "purchased Sigma-Aldrich P1512", "T3 sequence (P00800 233-548)": "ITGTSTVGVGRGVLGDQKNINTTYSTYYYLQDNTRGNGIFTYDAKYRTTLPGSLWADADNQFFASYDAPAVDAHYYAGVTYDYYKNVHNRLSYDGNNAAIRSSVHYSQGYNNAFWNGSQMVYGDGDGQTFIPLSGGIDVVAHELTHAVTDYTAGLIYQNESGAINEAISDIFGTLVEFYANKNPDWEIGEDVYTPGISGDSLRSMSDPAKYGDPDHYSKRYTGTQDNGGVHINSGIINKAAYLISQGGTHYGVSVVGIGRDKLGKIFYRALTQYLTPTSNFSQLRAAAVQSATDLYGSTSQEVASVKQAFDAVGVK", "assay": "Protease assay with azocasein: thermolysin", "assay_type": "biochemical", "details": "azocasein substrate, pH 7.2; n.i. = no inhibition", "procedure": "as §5, §6, §7, §4"}, "papain [3]": {"biological_target": "T4, papain (Carica papaya, UniProt P00784)", "T4 construct": "purchased Sigma-Aldrich P4762", "T4 sequence (P00784 134-345)": "T1 sequence (P00784 134-345)", "assay": "Protease assay with azocasein: papain", "assay_type": "biochemical", "details": "azocasein substrate, pH 7.2, n.i. = no inhibition", "procedure": "as §5, §6, §7, §4"}, "Cathepsin B [4]": {"biological_target": "T5, Cathepsin B (Homo sapiens, UniProt P07858)", "assay": "Cathepsin B inhibition assay (Z-Arg-Arg-AMC)", "assay_type": "biochemical", "details": "Z-Arg-Arg-AMC substrate, pH 6.0, n.i. = no inhibition", "procedure": "Cathepsin B inhibition assay. Cathepsin B inhibition assay was determined according to Hiwasa et al. (loc. cit.) with minor changes. Cathepsin B was purchased from Sigma Aldrich (C0150) and stored in 50 mM sodium acetate, 1 mM EDTA, pH 5 (adjusted with acetic acid). Cathepsin B was activated by preincubation at 40° C. for 10 min in assay buffer (0.1 M sodium acetate 1.3 mM EDTA, pH 6.0 adjusted with acetic acid, 2 μM DTT, 2.6 mM cysteine and 0.05% Triton X100). […] Final concentration of cathepsin B was 0.1 mg/ml. […] After stopping the reaction with 85 μL buffer containing 100 mM sodium monochlor acetate, 30 mM sodium acetate, 70 mM acetic acid, the hydrolyzed substrate was detected at an excitation wavelength of 380 nm and a fluorescence wavelength of 450 nm, using a fluorophotometer. 1 μL of 1.5 mM leupeptin was used as enzyme inhibition control."}, "trypsin [5]": {"biological_target": "T6, trypsin (Bos taurus, UniProt P00760)", "T6 construct": "purchased Thermo Fisher 23266", "T6 sequence (P00760 24-246)": "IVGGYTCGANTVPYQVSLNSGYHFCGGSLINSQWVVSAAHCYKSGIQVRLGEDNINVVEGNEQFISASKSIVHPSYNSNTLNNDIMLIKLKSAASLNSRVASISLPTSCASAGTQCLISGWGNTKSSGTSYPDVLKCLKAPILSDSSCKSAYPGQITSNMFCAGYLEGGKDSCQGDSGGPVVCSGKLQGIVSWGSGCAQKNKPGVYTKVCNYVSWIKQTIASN", "assay": "Protease assay with azocasein: trypsin", "assay_type": "biochemical", "details": "azocasein substrate, pH 7.2; n.i. = no inhibition", "procedure": "as §5, §6, §7, §4"}, "papain [6]": {"biological_target": "T4, papain", "details": "reported in literature for known compounds; read-out: Papain, reported inhibitory activity as IC50 value; cited from earlier work"}, "trypsin [7]": {"test_system": "trypsin", "details": "reported in literature for known compounds; read-out: Trypsin, reported inhibitory activity as IC50 value; cited from earlier work"}, "[8]": {"test_system": "pepsin (Sigma-Aldrich P6887)", "assay": "Protease assay with azocasein, pepsin", "assay_type": "biochemical", "details": "1 μg/mL pepstatin A", "procedure": "as §1, §2, §3, §4"}, "Trypsin [9]": {"test_system": "Trypsin", "details": "reported in literature; cited from earlier work"}, "Cathepsin B [10]": {"biological_target": "T5, Cathepsin B", "details": "reported in literature; cells printed in μM; read-out: Cathepsin B, reported inhibitory activity as IC50 value; cited from earlier work"}, "[11]": {"test_system": "thermolysin (Sigma-Aldrich, P1512)", "details": "10 mM EDTA", "procedure": "as §1, §2, §3, §4"}},
  "note": "pIC50: −log10 of the molar value. Where two headings read alike, the source gives them in different places. Square brackets hold non-standard residues; d marks the D form. Peptide text beside a SMILES is read from it. * marks the point of attachment. Sta = CC(C)C[C@H](N)[C@@H](O)CC(=O)O; Isovaleryl = CC(C)CC(=O)*",
  "data": [
    {"smiles": "NC(=O)CI", "note": "[iodacetamide]", "values": [
      {"measurement": "inhibition of enzyme activity (control inhibitor), ficin", "setting": "[1]", "result": "> 95", "unit": "%"},
      {"measurement": "inhibition at 2000 µM", "setting": "[2]", "result": "> 95", "unit": "%"}
    ]},
    {"smiles": "CCCCCCCC(=O)N[C@@H](Cc1ccc(O)cc1)C(=O)N[C@@H](CCCNC(=N)N)CCC(=O)OC", "note": "[(S), 2,3-17,18-Tetrahydrobarnesin A methyl ester, reference compound]", "values": [
      {"measurement": "Ficin, inhibitory activity as IC50 value", "setting": "ficin", "result": "n.i."},
      {"measurement": "Pepsin, inhibitory activity as IC50 value", "setting": "pepsin", "result": "n.i."},
      {"measurement": "Thermolysin, inhibitory activity as IC50 value", "setting": "thermolysin", "result": "n.i."},
      {"measurement": "Papain, inhibitory activity as IC50 value", "setting": "papain [3]", "result": "n.i."},
      {"measurement": "Cathepsin B, inhibitory activity as IC50 value", "setting": "Cathepsin B [4]", "result": "n.i."},
      {"measurement": "Trypsin, inhibitory activity as IC50 value", "setting": "trypsin [5]", "result": "n.i."}
    ]},
    {"smiles": "CC(=O)N[C@@H](CC(C)C)C(=O)N[C@@H](CC(C)C)C(=O)N[C@H](C=O)CCCNC(=N)N", "note": "[Leupeptin, reference compound]", "values": [
      {"measurement": "pIC50", "setting": "papain [6]", "result": 6.07},
      {"measurement": "pIC50", "setting": "trypsin [7]", "result": 5.66}
    ]},
    {"smiles": "CC(C)CC(=O)N[C@H](C(=O)N[C@H](C(=O)N[C@@H](CC(C)C)[C@@H](O)CC(=O)N[C@@H](C)C(=O)N[C@@H](CC(C)C)[C@@H](O)CC(=O)O)C(C)C)C(C)C", "note": "[pepstatin A] (Isovaleryl-VV[Sta]A[Sta]-OH)", "values": [
      {"measurement": "inhibition of enzyme activity (control inhibitor), pepsin", "setting": "[8]", "result": "> 95", "unit": "%"}
    ]},
    {"smiles": "CCCCCCCC(=O)N[C@@H](Cc1ccc(O)cc1)C(=O)N[C@H](/C=C/C(=O)O)CCCNC(=N)N", "note": "[17,18-Dihydrobarnesin (4), 17,18-Dihydrobarnesin]", "values": [
      {"measurement": "pIC50", "setting": "ficin; read-out: Ficin, inhibitory activity as IC50 value", "result": 5.94},
      {"measurement": "Pepsin, inhibitory activity as IC50 value", "setting": "pepsin", "result": "n.i."},
      {"measurement": "Thermolysin, inhibitory activity as IC50 value", "setting": "thermolysin", "result": "n.i."},
      {"measurement": "pIC50", "setting": "papain [3]; read-out: Papain, inhibitory activity as IC50 value", "result": 5.32},
      {"measurement": "pIC50", "setting": "Cathepsin B [4]; read-out: Cathepsin B, inhibitory activity as IC50 value", "result": 7.06},
      {"measurement": "Trypsin, inhibitory activity as IC50 value", "setting": "trypsin [5]", "result": "n.i."}
    ]},
    {"smiles": "CC[C@H](NC(=O)C[C@H](O)[C@H](CC(C)C)NC(=O)[C@H](CC(C)C)NC(=O)[C@@H]1N[C@H]1C(=O)O)C(=O)N[C@H](/C=C/C(=O)O)CCCNC(=N)N", "note": "[Miraziridine A]", "values": [
      {"measurement": "pIC50", "setting": "Trypsin [9]", "result": 4.22},
      {"measurement": "IC50", "setting": "Cathepsin B [10]", "result": 2.05, "unit": "µM"}
    ]},
    {"smiles": "O=C(O)CN(CCN(CC(=O)O)CC(=O)O)CC(=O)O", "note": "[EDTA]", "values": [
      {"measurement": "inhibition of enzyme activity (control inhibitor), thermolysin", "setting": "[11]", "result": "> 95", "unit": "%"}
    ]},
    {"smiles": "CCCCCCCC(=O)N[C@@H](Cc1ccc(O)cc1)C(=O)N[C@@H](CCCNC(=N)N)CCC(=O)O", "note": "[(R), 2,3,17,18-Tetrahydrobarnesin A, reference compound]", "values": [
      {"measurement": "Ficin, inhibitory activity as IC50 value", "setting": "ficin", "result": "n.i."},
      {"measurement": "Pepsin, inhibitory activity as IC50 value", "setting": "pepsin", "result": "n.i."},
      {"measurement": "Thermolysin, inhibitory activity as IC50 value", "setting": "thermolysin", "result": "n.i."},
      {"measurement": "Papain, inhibitory activity as IC50 value", "setting": "papain [3]", "result": "n.i."},
      {"measurement": "Cathepsin B, inhibitory activity as IC50 value", "setting": "Cathepsin B [4]", "result": "n.i."},
      {"measurement": "Trypsin, inhibitory activity as IC50 value", "setting": "trypsin [5]", "result": "n.i."}
    ]}
  ]
}
